The target in experiment [1] is Endothelial PAS domain-containing protein 1 (Homo sapiens) (UniProt Q99814). The experiment is described as follows: potency against HIF reporters across cell lines – luminescence, panel, selectivity assay for HIF-2a inhibitor project, dose response (AID 651581). The note with it: human cell HIF reporter.
The target of experiment [2] is Hypoxia-inducible factor 1-alpha (Homo sapiens) (UniProt Q16665). The experiment is described as above. The note with it: human cell HIF reporter, HIF-1a.
Chain of Hypoxia-inducible factor 1-alpha (Homo sapiens) (Q16665 whole entry, looked up): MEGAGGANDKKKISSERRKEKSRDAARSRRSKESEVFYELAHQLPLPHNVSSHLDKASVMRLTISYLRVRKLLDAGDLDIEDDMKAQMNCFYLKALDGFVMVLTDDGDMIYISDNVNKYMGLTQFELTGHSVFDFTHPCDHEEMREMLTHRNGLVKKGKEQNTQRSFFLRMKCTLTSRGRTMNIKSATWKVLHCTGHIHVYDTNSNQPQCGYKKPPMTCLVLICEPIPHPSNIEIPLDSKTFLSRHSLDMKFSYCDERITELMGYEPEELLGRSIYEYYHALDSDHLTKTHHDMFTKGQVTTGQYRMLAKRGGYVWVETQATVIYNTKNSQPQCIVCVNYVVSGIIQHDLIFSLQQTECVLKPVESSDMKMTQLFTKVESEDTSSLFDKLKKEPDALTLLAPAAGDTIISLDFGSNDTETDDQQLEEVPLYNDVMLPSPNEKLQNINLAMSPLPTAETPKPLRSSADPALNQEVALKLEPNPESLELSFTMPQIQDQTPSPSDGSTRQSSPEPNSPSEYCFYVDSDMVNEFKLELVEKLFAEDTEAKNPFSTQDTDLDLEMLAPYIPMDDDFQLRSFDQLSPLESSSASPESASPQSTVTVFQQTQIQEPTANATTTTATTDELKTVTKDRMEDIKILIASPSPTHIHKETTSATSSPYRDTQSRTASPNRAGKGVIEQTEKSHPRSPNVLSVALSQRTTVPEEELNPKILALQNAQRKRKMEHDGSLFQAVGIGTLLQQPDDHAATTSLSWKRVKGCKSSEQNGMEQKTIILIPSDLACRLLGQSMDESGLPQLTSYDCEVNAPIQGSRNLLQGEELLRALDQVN

Active and inactive are the calls of the source. How the calls were made is not given here. Some results are limits rather than exact numbers.

In general, IC50 refers to the concentration that inhibits the measured activity by half.

On to `CS(=O)(=O)c1ccc(-c2cn3cc(C(=O)O)ccc3n2)cc1`, for which the IC50 in experiment [1] (HIF-2a PANC, run 1) was 86.7 µM; in experiment [1] (HIF-2a PANC, run 2), > 99 µM; in experiment [1] (HIF-2a, run 1) it was 28.8 µM; in experiment [1] (HIF-2a, run 2), 47.2 µM; in experiment [2] (mean of runs), > 99 µM (inactive); in experiment [2] (run 1), > 99 µM. For the same compound, in experiment [2] (run 2), the IC50 is > 99 µM. Moreover, the IC50 entry in experiment [1] (HIF-2a, mean of runs) was “inactive”.

Consider `COC(=O)Cc1ccc(NC(=O)c2ccc(C(C)(C)C)cc2)cc1`, for which the IC50 in experiment [1] (HIF-2a PANC, mean of runs) was < 1 µM (inactive); in experiment [1] (HIF-2a PANC, run 1), < 1 µM; in experiment [1] (HIF-2a PANC, run 2) it was < 3 µM; in experiment [1] (HIF-2a, mean of runs) it was 0.243 µM; in experiment [1] (HIF-2a, run 1), 0.246 µM; in experiment [1] (HIF-2a, run 2), 0.241 µM. In addition, the IC50 in experiment [2] (mean of runs), in experiment [2] (run 1) and in experiment [2] (run 2) was < 10 µM in each case.

With `N=c1nc(SCCC(=O)O)ss1`, the IC50 result is “inactive” in experiment [1] (HIF-2a PANC, mean of runs) and “inactive” in experiment [2] (mean of runs). Moreover, the IC50 is 30.8 µM in experiment [1] (HIF-2a PANC, run 1); 39.5 µM in experiment [1] (HIF-2a PANC, run 2); 6.38 µM in experiment [1] (HIF-2a, mean of runs); 6.36 µM in experiment [1] (HIF-2a, run 1); 6.39 µM in experiment [1] (HIF-2a, run 2); 7.84 µM in experiment [2] (run 1). This compound gave an IC50 in experiment [2] (run 2) of 14.4 µM.

In the case of `CN(C)c1c([N+](=O)[O-])cc(N2C(=O)C=CC2=O)cc1[N+](=O)[O-]`, in experiment [1] (HIF-2a PANC, mean of runs), the IC50 entry is “inactive”. The IC50 in experiment [1] (HIF-2a PANC, run 1) was 22.2 µM; in experiment [1] (HIF-2a PANC, run 2), 41.7 µM; in experiment [1] (HIF-2a, mean of runs), 8.6 µM; in experiment [1] (HIF-2a, run 1), 8.29 µM; in experiment [1] (HIF-2a, run 2) it was 8.9 µM; in experiment [2] (mean of runs), 52.2 µM. The IC50 in experiment [2] (run 1) was found to be 63.9 µM; in experiment [2] (run 2) it was 40.5 µM.

Take `Nc1ccc(-c2nnn(CC(=O)N3CCCCC3)n2)cc1`: the IC50 in experiment [1] (HIF-2a PANC, run 1) was > 99 µM; in experiment [1] (HIF-2a PANC, run 2), 33.3 µM; in experiment [1] (HIF-2a, run 1) it was 18.3 µM; in experiment [1] (HIF-2a, run 2) it was 17 µM; in experiment [2] (run 1) it was 15.7 µM; in experiment [2] (run 2) it was > 99 µM. The IC50 result in experiment [1] (HIF-2a, mean of runs) is “inactive”.

As to `Cc1ccc(/C=N/Nc2cccc(C(=O)O)c2)s1`, the IC50 in experiment [1] (HIF-2a PANC, run 1) was > 99 µM; in experiment [1] (HIF-2a PANC, run 2), > 99 µM; in experiment [1] (HIF-2a, run 1), < 30 µM; in experiment [1] (HIF-2a, run 2), > 99 µM; in experiment [2] (mean of runs) it was > 99 µM (inactive); in experiment [2] (run 1), > 99 µM. For the same compound, the IC50 in experiment [2] (run 2) is > 99 µM.

As for `C/C(=N/NC(=O)c1cc(C2CC2)[nH]n1)c1cccs1`, the IC50 was > 99 µM in experiment [1] (HIF-2a PANC, run 1); < 30 µM in experiment [1] (HIF-2a PANC, run 2); < 30 µM (inactive) in experiment [1] (HIF-2a, mean of runs); < 30 µM in experiment [1] (HIF-2a, run 1); < 30 µM in experiment [1] (HIF-2a, run 2); 24.8 µM in experiment [2] (run 1). Moreover, the IC50 in experiment [2] (run 2) turned out to be 21.7 µM. For the same compound, in experiment [2] (mean of runs), the IC50 result was “inactive”.

For the compound `O=C(O)c1cccc(CSc2nnc(COc3ccccc3)o2)c1`, the IC50 is > 99 µM in experiment [1] (HIF-2a PANC, run 1); 18.8 µM in experiment [1] (HIF-2a PANC, run 2); 6.36 µM in experiment [1] (HIF-2a, mean of runs); 6.48 µM in experiment [1] (HIF-2a, run 1); 6.23 µM in experiment [1] (HIF-2a, run 2); > 99 µM in experiment [2] (run 1). Further, in experiment [2] (run 2), the IC50 is > 99 µM.

On to `CCOC(=O)Cc1csc(NC(=S)NC(=O)c2ccccc2)n1`, for which the IC50 in experiment [1] (HIF-2a PANC, run 1) was 41 µM; in experiment [1] (HIF-2a PANC, run 2), < 10 µM; in experiment [1] (HIF-2a, mean of runs) it was 3.69 µM; in experiment [1] (HIF-2a, run 1), 3.72 µM; in experiment [1] (HIF-2a, run 2), 3.66 µM; in experiment [2] (mean of runs), 22.1 µM. The figures for the IC50 in experiment [2] (run 1) and in experiment [2] (run 2) were 23.3 µM and 20.9 µM, respectively.

For the compound `O=C(NCc1ccccc1)C(=O)Nc1cccc(C(=O)O)c1`, the IC50 in experiment [1] (HIF-2a PANC, mean of runs) was > 99 µM (inactive); in experiment [1] (HIF-2a PANC, run 1) it was > 99 µM; in experiment [1] (HIF-2a PANC, run 2) it was > 99 µM; in experiment [1] (HIF-2a, mean of runs), 9.97 µM; in experiment [1] (HIF-2a, run 1) it was 9.98 µM; in experiment [1] (HIF-2a, run 2), 9.95 µM. Further, the IC50 in experiment [2] (run 1) and in experiment [2] (run 2) was > 99 µM in each case.

Take `Cn1c(/C=C/c2ccc(Cl)cc2)c([N+](=O)[O-])c(=O)n(C)c1=O`: the IC50 in experiment [1] (HIF-2a PANC, mean of runs) was 34.3 µM; in experiment [1] (HIF-2a PANC, run 1) it was 29.4 µM; in experiment [1] (HIF-2a PANC, run 2) it was 39.1 µM; in experiment [1] (HIF-2a, run 1), 12.5 µM; in experiment [1] (HIF-2a, run 2) it was 11.9 µM; in experiment [2] (run 1), 26 µM. This compound also displayed an IC50 in experiment [2] (run 2) of 24.3 µM. Further, the IC50 entry in experiment [1] (HIF-2a, mean of runs) was “inactive”; in experiment [2] (mean of runs) it was “inactive”.

Regarding `COc1cc(/C=N/O)ccc1OCc1ccc(C(=O)O)cc1`, the IC50 in experiment [1] (HIF-2a PANC, mean of runs) is > 99 µM (inactive); in experiment [1] (HIF-2a PANC, run 1), > 99 µM; in experiment [1] (HIF-2a PANC, run 2) it was > 99 µM; in experiment [1] (HIF-2a, mean of runs), 4.29 µM; in experiment [1] (HIF-2a, run 1) it was 5.58 µM; in experiment [1] (HIF-2a, run 2), 3 µM. The IC50 in experiment [2] (run 1) and in experiment [2] (run 2) was > 99 µM each time.

As for `O=Nc1c(O)ccc2cc(S(=O)(=O)O)ccc12`, the IC50 result in experiment [1] (HIF-2a PANC, mean of runs) is “inactive”. The IC50 was 25.5 µM in experiment [1] (HIF-2a PANC, run 1); 51.1 µM in experiment [1] (HIF-2a PANC, run 2); 8.77 µM in experiment [1] (HIF-2a, mean of runs); 8.62 µM in experiment [1] (HIF-2a, run 1); 8.91 µM in experiment [1] (HIF-2a, run 2); 3.06 µM in experiment [2] (run 1). Moreover, the IC50 in experiment [2] (run 2) was > 99 µM.

For the compound `CCOC(=O)c1cc(-c2csc(-c3ccc(C(C)(C)C)cc3)n2)on1`, the IC50 is > 99 µM (inactive) in experiment [1] (HIF-2a PANC, mean of runs); > 99 µM in experiment [1] (HIF-2a PANC, run 1); > 99 µM in experiment [1] (HIF-2a PANC, run 2); 4.82 µM in experiment [1] (HIF-2a, mean of runs); 4.83 µM in experiment [1] (HIF-2a, run 1); 4.81 µM in experiment [1] (HIF-2a, run 2). For the same compound, the values for the IC50 in experiment [2] (mean of runs), in experiment [2] (run 1) and in experiment [2] (run 2) were 55.7 µM, 68.5 µM and 42.9 µM, respectively.

With `O=C(OCC(F)(F)F)c1cccc(COc2ccc3ccccc3c2)c1`, the IC50 in experiment [1] (HIF-2a PANC, run 1) is > 99 µM; in experiment [1] (HIF-2a PANC, run 2), < 30 µM; in experiment [1] (HIF-2a, mean of runs), 2.86 µM; in experiment [1] (HIF-2a, run 1), 2.92 µM; in experiment [1] (HIF-2a, run 2), 2.79 µM; in experiment [2] (run 1), > 99 µM. For the same compound, the IC50 in experiment [2] (run 2) was > 99 µM.

Turning to `CN(C)c1ccc(Nc2nc(N)c3ccccc3n2)cc1`, the IC50 was 17.9 µM in experiment [1] (HIF-2a PANC, mean of runs); 24.8 µM in experiment [1] (HIF-2a PANC, run 1); 11 µM in experiment [1] (HIF-2a PANC, run 2); < 30 µM (inactive) in experiment [1] (HIF-2a, mean of runs); < 30 µM in experiment [1] (HIF-2a, run 1); < 30 µM in experiment [1] (HIF-2a, run 2). For the same compound, the IC50 is 13.7 µM in experiment [2] (run 1) and < 30 µM in experiment [2] (run 2).

As for `O=C(O)COc1ccc2oc3ccccc3c2c1`, the IC50 result in experiment [1] (HIF-2a PANC, mean of runs) is “inactive”; in experiment [1] (HIF-2a, mean of runs) it was “inactive”. The IC50 is 75.3 µM in experiment [1] (HIF-2a PANC, run 1); 20.5 µM in experiment [1] (HIF-2a PANC, run 2); 13.1 µM in experiment [1] (HIF-2a, run 1); 12.7 µM in experiment [1] (HIF-2a, run 2); 43.4 µM in experiment [2] (mean of runs); 27.8 µM in experiment [2] (run 1). Moreover, in experiment [2] (run 2), the IC50 was found to be 59 µM.

Turning to `Cc1ccc(Oc2ccc(OCC(=O)Nc3ccncc3)cc2)cc1`, the IC50 in experiment [1] (HIF-2a PANC, mean of runs) was 3.59 µM; in experiment [1] (HIF-2a PANC, run 1) it was 3.76 µM; in experiment [1] (HIF-2a PANC, run 2) it was 3.42 µM; in experiment [1] (HIF-2a, mean of runs) it was 5.89 µM; in experiment [1] (HIF-2a, run 1), 5.61 µM; in experiment [1] (HIF-2a, run 2), 6.17 µM. Further, the values for the IC50 in experiment [2] (run 1) and in experiment [2] (run 2) were 14.9 µM and 15.9 µM, respectively. Also, the IC50 result in experiment [2] (mean of runs) was “inactive”.

As to `Cc1c(CCC(=O)O)c(=O)oc2cc(OCc3ccccc3Br)ccc12`, the IC50 in experiment [1] (HIF-2a PANC, mean of runs) is 5.79 µM; in experiment [1] (HIF-2a PANC, run 1) it was 2.48 µM; in experiment [1] (HIF-2a PANC, run 2) it was 9.09 µM; in experiment [1] (HIF-2a, mean of runs), 6.3 µM; in experiment [1] (HIF-2a, run 1) it was 6.05 µM; in experiment [1] (HIF-2a, run 2) it was 6.54 µM. The figures for the IC50 in experiment [2] (run 1) and in experiment [2] (run 2) were 8.16 µM and 20.8 µM, respectively. For the same compound, the IC50 entry in experiment [2] (mean of runs) is “inactive”.

Values taken from PubChem BioAssay AID651581 (Sanford-Burnham Center for Chemical Genomics, 2012).
